Results published in patent US20250304587A1, “WEE1 INHIBITOR, PREPARATION THEREFOR AND USE THEREOF” (JIANGSU TASLY DIYI PHARMACEUTICAL CO., LTD., priority 2022, published 2025).
In brackets after ≈: the same amount, converted by molar mass. Read-outs that look alike come from different tables or passages of the source.

Assays:
[1] = Metabolic stability in liver microsomes, human; assay type: in vitro ADME
Procedure: (§1) Test Example 3: Evaluation of the Metabolic Stability of Liver Microsomes (Mouse and Human) In Vitro Microsomes were taken out from the −80° C. refrigerator, rapidly melted in a 37° C. water bath and placed on ice until ready to use. The test article was diluted with DMSO to prepare a 10 mM stock solution, and then diluted with acetonitrile to a 0.5 mM secondary stock solution. […] NADPH was diluted with Buffer C to a working solution of 6 mM for the starter solution. An acetonitrile solution containing an internal standard was prepared as the precipitant, and Verapamil-HCl was chosen as the internal standard at a concentration of 4 ng/ml. […] A separate plate with pointed bottom wells, noted as a precipitation plate, was added with 135 μL precipitant per well; 0 h samples were transferred to the plate after 10 min incubation and 15 μL of starter solution was added; the plate was placed on ice before centrifugation. The diluted starter solution was added in sufficient quantity to the dispensing plate to facilitate the multichannel pipette aspiration operation. The reaction was carried out on a warm incubation shaker and 15 μL of starter solution/sample is added to the plate using a multichannel pipette. The reaction was mixed with a slight shake to initiate the reaction, which was accurately timed and recorded using a timer; After the reaction time had elapsed, all the solution in the plate was aspirated using the multichannel pipette and added to the precipitation plate to terminate the reaction at that point in time. After all reactions had been terminated, the plates were shaken for ten minutes on a plate shaker at 600 rpm to precipitate the protein. The plate was centrifuged at 4° C. for 15 minutes at maximum rpm. 80 μL of supernatant was taken, 320 μL of pure water was added and mixed for LC-MS analysis.

[2] = system: human colon cancer HT-29 cells xenograft; experiment: Anti-tumor efficacy, HT-29 xenograft (CDX model); assay type: in vivo, female BALB/c nude mice; details: HT-29 model, after 24 days
Procedure: (§2) Experimental method: BALB/c nude mice (provided by Charles River) were selected, 7-8 weeks old and weighing 19-22 g.
(§3) The prepared and cultured HT-29 cells were counted, and 5×10^6 HT-29 cells were mixed in 0.1 mL PBS solution and inoculated subcutaneously on the right wing of mice. When the cells became tumors and the average tumor volume reached 120 mm^3, they began to be grouped and administered. […] The experimental indicator was to check whether the tumor growth was inhibited. The formula for calculating the tumor volume was: V=0.5a×b^2, where a and b respectively indicated the long and short diameters of the tumor.
(§4) The anti-tumor effects of the compounds were evaluated by TGI (%).

[3] = Pharmacokinetics on single dose in Beagle dogs (iv and po); assay type: in vivo, male Beagle dogs
Procedure: Pharmacokinetic properties of the drug in male Beagle dogs were evaluated by the same method with in vivo pharmacokinetic study with mice. The basic information is as follows: • Beagle: weighing 8-11 kg, purchased from Jiangsu Marshall Biotechnology Co., Ltd. • Dosage: 2 mg/kg (intravenous injection); 10 mg/kg (oral) • Solvent: 5% DMSO+5% Solutol+90% (20% HP-β-CD in Saline)

[4] = Metabolic stability in liver microsomes, monkey; assay type: in vitro ADME
Procedure: as §1, with “Microsomes” for “Test Example 3: Evaluation of the Metabolic Stability of Liver Microsomes (Mouse and Human) In Vitro Microsomes”

[5] = Metabolic stability in liver microsomes, rat; assay type: in vitro ADME
Procedure: as §1, with “Microsomes” for “Test Example 3: Evaluation of the Metabolic Stability of Liver Microsomes (Mouse and Human) In Vitro Microsomes”

[6] = Saturated solubility in buffer at different pH; assay type: physicochemical; details: for solubility at 24 h: buffer solution, aqueous buffer, thermodynamic from solid
Procedure: The compound was placed in a buffer solution and shaken at constant temperature for 24 h. […] Chromatographic conditions: C18 column, mobile phase A: 0.02 M potassium dihydrogen phosphate:acetonitrile=90:10, mobile phase B: acetonitrile; V: 1.0 ml/min, T: 35° C., λ: 210 nm.

[7] = Pharmacokinetics on single dose in rats (iv and po); assay type: in vivo, male SD rats
Procedure: Pharmacokinetic properties of the drug in male SD rats were evaluated by the same method with in vivo pharmacokinetic study with mice.

[8] = Metabolic stability in liver microsomes, dog; assay type: in vitro ADME
Procedure: as §1, with “Microsomes” for “Test Example 3: Evaluation of the Metabolic Stability of Liver Microsomes (Mouse and Human) In Vitro Microsomes”

[9] = system: human pancreatic cancer BxPC3 cells xenograft; experiment: Anti-tumor efficacy, BxPC3 xenograft (CDX model); assay type: in vivo, female BALB/c nude mice; details: after 40 days
Procedure: as §2
as §3, with “BxPC3” for “HT-29”, “1×10^7 BxPC3” for “5×10^6 HT-29”, “190” for “120”
as §4

[10] = male, rat, plasma, SD rats, iv 1 mg/kg
[11] = male, rat, plasma, SD rats, po 10 mg/kg

Structure (SMILES): [2H][C@]1(O)c2nc(-n3c4nc(Nc5ccc(N6CCC7(CCN(C)CC7)CC6)cc5)ncc4c(=O)n3CC=C)ccc2CCC12CC2 [Compound 37b]
- T1/2 liver microsomes Human [1]: >2 h
- TGI ([2]; 30 mg/kg qd): 34.7%
- TGI ([2]; 60 mg/kg qd): 57.7%
- TGI ([2]; 120 mg/kg qd): 100.0%
- AUClast ([3]; iv 2 mg/kg): 1602 ng·h/mL
- Cl ([3]; iv 2 mg/kg): 21.8 mL/min/kg
- T1/2 ([3]; iv 2 mg/kg): 5.05 h
- Vss ([3]; iv 2 mg/kg): 5.71 L/kg
- AUClast ([3]; po 10 mg/kg): 1816 ng·h/mL
- Cmax ([3]; po 10 mg/kg): 171 ng/mL
- F ([3]; po 10 mg/kg): 22.8%
- T1/2 ([3]; po 10 mg/kg): 4.69 h
- Tmax ([3]; po 10 mg/kg): 2.00 h
- T1/2 liver microsomes Monkey [4]: 0.633 h
- T1/2 liver microsomes Rat [5]: >2 h
- Saturated solubility pH 5.0 ([6]; pH 5): 0.37 mg/mL
- Saturated solubility pH 6.5 ([6]; pH 6.5): 0.37 mg/mL
- Saturated solubility pH 7.4 ([6]; pH 7.4): 0.62 mg/mL
- AUClast ([7]; SD rats, iv 1 mg/kg): 471 ng·h/mL
- C0 ([7]; SD rats, iv 1 mg/kg): 313.2 ng/mL
- T1/2 ([7]; SD rats, iv 1 mg/kg): 3.97 h
- AUClast ([7]; SD rats, po 10 mg/kg): 1131 ng·h/mL
- Cmax ([7]; SD rats, po 10 mg/kg): 188.6 ng/mL
- F ([7]; SD rats, po 10 mg/kg): 24.01%
- Tmax ([7]; SD rats, po 10 mg/kg): 2.67 h
- Drug exposure (in words) ([7]; rats, compared with AZD1775): obvious advantages in drug exposure
- T1/2 liver microsomes Dog [8]: 1.16 h
- TGI ([9]; 30 mg/kg qd): 70.1%
- TGI ([9]; 60 mg/kg qd): 72.4%
- TGI ([9]; 120 mg/kg qd): 100.9%

Structure (SMILES): C=CCn1c(=O)c2cnc(Nc3ccc(N4CCN(C)CC4)cc3)nc2n1-c1cccc(C(C)(C)O)n1 [AZD1775, reference compound]
- half-life at 1 µM ([1]; read-out: T1/2 liver microsomes Human): 0.635 h
- TGI ([2]; 60 mg/kg qd): 54.5%
- Vss ([3]; iv 2 mg/kg): 3.01 L/kg
- AUC(0-t) ([3]; male, dog, plasma, iv 2 mg/kg): 877 ng·h/mL
- clearance ([3]; male, dog, plasma, iv 2 mg/kg): 44 mL/min/kg
- half-life ([3]; male, dog, plasma, iv 2 mg/kg): 1.03 h
- AUC(0-t) ([3]; male, dog, plasma, po 10 mg/kg): 1620 ng·h/mL
- half-life ([3]; male, dog, plasma, po 10 mg/kg): 2.34 h
- Cmax ([3]; male, dog, plasma, po 10 mg/kg, read-out: Cmax): 405 ng/mL
- Tmax ([3]; male, dog, plasma, po 10 mg/kg, read-out: Tmax): 1.67 h
- F ([3]; po 10 mg/kg): 37.9%
- half-life at 1 µM ([4]; read-out: T1/2 liver microsomes Monkey): 0.335 h
- half-life at 1 µM ([5]; read-out: T1/2 liver microsomes Rat): 0.635 h
- solubility at 24 h ([6]; pH 5.0, 37° C., read-out: Saturated solubility pH 5.0): 410 µg/mL (≈ 819 µM)
- solubility at 24 h ([6]; pH 6.5, 37° C., read-out: Saturated solubility pH 6.5): 50 µg/mL (≈ 99.9 µM)
- solubility at 24 h ([6]; pH 7.4, 37° C., read-out: Saturated solubility pH 7.4): 20 µg/mL (≈ 40 µM)
- Cl ([7]; SD rats, po 10 mg/kg): 170.8 mL/min/kg
- F ([7]; SD rats, po 10 mg/kg): 121.8%
- AUC(0-t) [7, 10]: 72.3 ng·h/mL
- clearance [7, 10]: 148 mL/min/kg
- half-life [7, 10]: 0.91 h
- C0 ([7]; male, rat, plasma, SD rats, iv 1 mg/kg, read-out: C0): 101 ng/mL
- AUC(0-t) [7, 11]: 881 ng·h/mL
- half-life [7, 11]: 2.68 h
- Cmax ([7]; male, rat, plasma, SD rats, po 10 mg/kg, read-out: Cmax): 188 ng/mL
- half-life at 1 µM ([8]; read-out: T1/2 liver microsomes Dog): 0.179 h
- TGI ([9]; 60 mg/kg qd): 57.6%
